From patent publication US12502369B2, “Methods of cancer treatment” (K-GEN, INC., priority 2015, dated 2025)
pKi: −log10 of the molar value. “Also recorded” adds a separate entry of the source.

Tests used:
A549 = assay: Proliferation assay, PKC inhibitor in combination with PKC activators, A549; type: cell-based; conditions: for effect on PKC activator-mediated proliferation inhibition: K101A with Go6976 (0.1 or 0.3 μM), GF109203X (0.3 or 1 μM), Enzastaurin (0.3 or 1 μM); for inhibition of K101A anti-proliferative effects: higher concentrations of inhibitor
Procedure: To assess if activation of different classes of PKC is required for anti-proliferation effect of PKC activators, Sotrastaurin, a PKC inhibitor targeting both conventional and novel classes of PKC, was tested in combination with PKC activators in the proliferation assays. Proliferation assay in lung cancer cell line A549 (FIG. 15) and in pancreatic cell line MiaPaCa-2 (FIG. 16) was performed as described in Example 1. […] Then, K101A or K102 was tested in 8- or 9-point titrations in the presence of DMSO or Sotrastaurin (0.1 μM or 1 μM). […] Thus, PKC activator-mediated anti-proliferation effects are dependent on activation of PKC isoforms from conventional, or novel, or both classes of PKCs.
To assess if PKC activation is required for anti-proliferation effect of PKC activators in cancer cell lines that are sensitive to these activators, a pan-PKC inhibitor Go6983, targeting classes of PKCs (conventional, novel, atypical, and PKCμ), was tested in combination with PKC activators in the proliferation assays. Proliferation assay in lung cancer cell line A549 (FIG. 17) and in pancreatic cell line MiaPaCa-2 (FIG. 18) was performed as described in Example 1. […] Then, K101A or K102 was tested in 8- or 9-point titrations in the presence of DMSO or Go6983 (0.1 μM or 1 μM). […] Thus, PKC activation is required for anti-proliferation effect of PKC activators.
Proliferation assay was performed as described in Example 1. […] Thus, PKC activator-mediated anti-proliferation effects appear mainly dependent on activation of novel PKC isoforms.

[1] = test system: PKC isoforms and Erk1/2 in A549 cells; assay: PKC inhibitor effect on PKC activator-mediated phosphorylation of PKCs and Erk1/2, A549; type: cell-based; conditions: 30 minutes; for K101A- or K102-induced phosphorylation of PKCμ at Ser916 or Ser744/748, PKCδ at Thr505, and Erk / phosphorylation of PKCδ at Tyr311 induced by PKC inhibitor: inhibitor pre-treatment 1 μM
Procedure: To assay if PKC inhibitors have any effects on the PKC activator-mediated phosphorylation of PKCs, A549 cells were pre-treated with DMSO, PKC inhibitors Go6983 (0.3 μM or 1 μM) or Sotrastaurin (0.3 μM or 1 μM) for 30 minutes before adding PKC activators K101A (1 μM) or K102 (0.1 μM) for another 30 minutes (FIG. 22). Cell lysis, protein quantitation, and Western blot analysis were performed as described above in Example 2 and 4. […] Phosphorylation of PKCα/β at Thr638/641 was not affected by the inhibitors (FIG. 22A). […] These PKC inhibitor studies indicate that blocking phosphorylation and activation of various isoforms of PKC is correlated with inhibition of the anti-proliferative effects of the PKC activators.
Cell lysis, protein quantitation, and Western blot analysis were performed as described above in Example 2 and 4. […] These PKC inhibitor studies also indicate that phosphorylation and activation of novel PKC isoforms and PKCμ is required for the anti-proliferative effects of the PKC activators whereas phosphorylation of PKCδ at Tyr311 is correlated with inhibition of the anti-proliferative effects of PKC activators.

PKCε = PKCε (Homo sapiens, UniProt Q02156); conditions: cited from earlier work
Namalwa cells = assay: Proliferation assay, PKC inhibitors in combination with PKC activators, Namalwa; type: cell-based; conditions: Sotrastaurin 0.3/1 μM, Go6983 0.1/1 μM, Go6976 0.3/1 μM, Enzastaurin at very high concentration of 10 μM
Procedure: PKC inhibitor studies were performed as described in Example 15. […] Thus, PKC activator-mediated anti-proliferation effects may be dependent on activation of novel PKC isoforms.

[2] = test system: PKC isoforms and Erk1/2 in Mino and Namalwa cells; assay: PKC inhibitor effect on K101A-mediated phosphorylation of PKCs and Erk1/2 in Mino and Namalwa cells; type: cell-based; conditions: for phosphorylation of PKCδ at Tyr311 induced by PKC inhibitor: inhibitor pre-treatment 30 minutes; for K101A-induced phosphorylation of PKCμ at Ser916 or Ser744/748, PKCδ at Thr505, and Erk: inhibitor pre-treatment 30 minutes (Go6983, Sotrastaurin 1 μM)
Procedure: Cell lysis, protein quantitation, and Western blot analysis were performed as described above in Example 2 and 4. […] Again, these PKC inhibitor studies indicate the anti-proliferative effects of the PKC activators appear to be positively associated with phosphorylation and activation of novel PKC isoforms and PKCγ, and negatively associated with the phosphorylation of PKCδ at Tyr311.

Mino cells = assay: Proliferation assay, PKC inhibitors in combination with PKC activators, Mino; type: cell-based; conditions: Sotrastaurin 0.3/1 μM, Go6983 0.1/1 μM, Go6976 0.3/1 μM, Enzastaurin 1/3 μM
Procedure: PKC inhibitor studies were performed as described in Example 8, 9, and 10. […] Thus, PKC activator-mediated anti-proliferation effects may be dependent on activation of PKC isoforms from the novel PKC class.

PKCα, β, & γ = conditions: cited from earlier work
PKCα & β = conditions: cited from earlier work
MiaPaCa-2 = assay: Proliferation assay, PKC inhibitor in combination with PKC activators, MiaPaCa-2; type: cell-based; conditions: Sotrastaurin 1 μM with K101A or K102
[3] = inhibitor pre-treatment 0.3 μM or 1 μM

PKCε, sequence (Q02156 whole entry): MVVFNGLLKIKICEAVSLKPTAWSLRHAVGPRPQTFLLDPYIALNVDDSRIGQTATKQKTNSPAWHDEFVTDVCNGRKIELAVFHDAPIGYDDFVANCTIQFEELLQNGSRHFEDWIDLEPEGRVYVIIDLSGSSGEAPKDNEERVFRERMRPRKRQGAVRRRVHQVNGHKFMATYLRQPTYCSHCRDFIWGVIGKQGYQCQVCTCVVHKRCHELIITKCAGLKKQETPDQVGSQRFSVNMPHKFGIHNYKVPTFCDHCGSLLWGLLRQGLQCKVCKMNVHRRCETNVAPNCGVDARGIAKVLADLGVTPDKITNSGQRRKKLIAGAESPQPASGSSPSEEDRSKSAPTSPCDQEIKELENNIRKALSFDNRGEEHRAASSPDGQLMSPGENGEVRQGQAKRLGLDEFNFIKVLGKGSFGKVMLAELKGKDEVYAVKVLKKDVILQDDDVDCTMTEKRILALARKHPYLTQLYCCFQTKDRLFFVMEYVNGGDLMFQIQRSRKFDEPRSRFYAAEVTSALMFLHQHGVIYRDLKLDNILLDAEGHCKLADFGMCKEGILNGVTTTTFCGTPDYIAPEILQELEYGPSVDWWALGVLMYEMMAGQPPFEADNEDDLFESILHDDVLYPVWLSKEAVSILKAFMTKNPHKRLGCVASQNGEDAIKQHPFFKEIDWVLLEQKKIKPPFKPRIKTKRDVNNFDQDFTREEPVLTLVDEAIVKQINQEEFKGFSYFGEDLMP

Structure (SMILES)	effect on PKC activator-mediated proliferation inhibition (A549)	inhibition of K101A anti-proliferative effects (A549)	K101A- or K102-induced phosphorylation of PKCμ at Ser916 or Ser744/748, PKCδ at Thr505, and Erk [1]	phosphorylation of PKCδ at Tyr311 induced by PKC inhibitor [1]	pKi (PKCε)	effect on PKC activator-mediated anti-proliferation effects (Namalwa cells)	phosphorylation of PKCδ at Tyr311 induced by PKC inhibitor [2]	effect on PKC activator-mediated anti-proliferation effects (Mino cells)	pKi (PKCα, β, & γ)	K101A-induced phosphorylation of PKCμ at Ser916 or Ser744/748, PKCδ at Thr505, and Erk [2]	pKi (PKCα & β)	effect on PKC activator-mediated anti-proliferation effects (A549; Sotrastaurin 1 μM with K101A or K102)	K101A- and K102-induced phosphorylation of Erk1/2 [1, 3]	K101A- or K102-induced phosphorylation, P-PKCμ (Ser916), P-PKCμ (Ser744/748), P-PKCδ (Thr505) [1, 3]	Phosphorylation of PKCα/β at Thr638/641 [1, 3]	effect on PKC activator-mediated anti-proliferation effects (MiaPaCa-2)
Cn1cc(C2=C(c3cn(C4CCN(Cc5ccccn5)CC4)c4ccccc34)C(=O)NC2=O)c2ccccc21 [Enzastaurin]	minimal effects; also recorded: weak inhibition	Slight inhibition	minimal effects	induced phosphorylation of PKCδ at Tyr311 partially	6.96	marginally blocked	induced moderate phosphorylation	partially blocked								
CN(C)CCCn1cc(C2=C(c3c[nH]c4ccccc34)C(=O)NC2=O)c2ccccc21 [GF109203X]	minimal effects; also recorded: weak inhibition	Slight inhibition	minimal effects	induced phosphorylation of PKCδ at Tyr311 partially					~7.70							
Cn1c2ccccc2c2c3c(c4c5ccccc5n(CCC#N)c4c21)CNC3=O [Go6976]	minimal effects; also recorded: no inhibition		minimal effects	induced no phosphorylation of PKCδ at Tyr311		did not block	did not induce phosphorylation	did not block		little effect	8.21 to 8.64					
CN1CCN(c2nc(C3=C(c4c[nH]c5ccccc45)C(=O)NC3=O)c3ccccc3n2)CC1 [Sotrastaurin]			completely abolished	induced phosphorylation of PKCδ at Tyr311		dose-dependently blocked	induced robust phosphorylation	dose-dependently blocked		completely abolished		completely abolished	blocked dose-dependently	blocked in a dose-dependent manner	not affected	completely abolished
